Data as given in patent US10988481B2, “Potent and selective mu opioid receptor modulators” (VIRGINIA COMMONWEALTH UNIVERSITY, priority 2016, dated 2021).
Where two headings read alike, the source gives them in different places.

Experiments:
KOR = KOR (Homo sapiens (Human), UniProt P41145); experiment: Competition binding assay at KOR ([3H]DPN, CHO cell membranes)
Method: (§1) Chinese hamster ovary (CHO) cells expressing MOR, KOR and DOR were cultured for use in this assay. The culture media used for MOR CHO cells contained 500 mL DMEM/F12 media, 10% FBS, 1% penicillin/streptomycin, and 2.75 mL G418. The DOR and KOR CHO cells were cultured in the same media except that 5% FBS was used instead of 10%. The cells are allowed to grow until they are 80-95% confluent after which they are split. The cells are continuously cultured and split until there were sufficient cells for the studies.
(§2) Once the cells reached confluence, cells were harvested, centrifuged at 1000×g for 10 minutes, and suspended in membrane buffer (50 mM Tris, 3 mM MgCl2, and 1 mM EGTA, pH 7.4). The cells were then homogenized, centrifuged at 50000×g for 10 minutes, and re-homogenized in membrane buffer. A Bradford assay was conducted to determine membrane protein concentrations, and membrane protein preps (3 μg/aliquot) were stored at −80° C.
(§3) The competition binding assay was conducted to determine the affinity and selectivity of the synthesized compounds to MOR over KOR and DOR. The Kd and Bmax values for [^3H]NLX at MOR and [^3H]DPN at KOR had been determined previously. […] [^3H]NLX was used to label MOR whilst [^3H]DPN was used to label both DOR and KOR. The potency of the new compounds in displacing the specific binding of the radioligand was determined by linear regression analysis of Hill plots. […] The IC50 values were determined and converted to Ki values using the Cheng—Prusoff equation (Rosenblum, A. et al. Exp Clin Psychopharmacol. 2008, 16 (5), 405-416).

DOR = DOR (Homo sapiens (Human), UniProt P41143); experiment: Competition binding assay at DOR ([3H]DPN, CHO cell membranes)
DOR, sequence (P41143 whole entry, looked up): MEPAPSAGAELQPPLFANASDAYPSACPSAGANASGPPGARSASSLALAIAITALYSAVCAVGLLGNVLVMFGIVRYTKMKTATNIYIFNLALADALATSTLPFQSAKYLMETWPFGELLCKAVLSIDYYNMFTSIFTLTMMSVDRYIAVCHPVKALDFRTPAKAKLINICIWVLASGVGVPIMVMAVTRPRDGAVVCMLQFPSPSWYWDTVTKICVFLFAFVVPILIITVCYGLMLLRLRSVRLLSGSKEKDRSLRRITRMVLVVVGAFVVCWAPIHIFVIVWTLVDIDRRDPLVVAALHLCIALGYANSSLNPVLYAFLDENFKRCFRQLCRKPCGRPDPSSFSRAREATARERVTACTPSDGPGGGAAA
Method: as §1, §2, §3

MOR = MOR (Mus musculus, UniProt P42866); assay type: biochemical; conditions: relative to 3 μM DAMGO at MOR
MOR, sequence (P42866 whole entry, looked up): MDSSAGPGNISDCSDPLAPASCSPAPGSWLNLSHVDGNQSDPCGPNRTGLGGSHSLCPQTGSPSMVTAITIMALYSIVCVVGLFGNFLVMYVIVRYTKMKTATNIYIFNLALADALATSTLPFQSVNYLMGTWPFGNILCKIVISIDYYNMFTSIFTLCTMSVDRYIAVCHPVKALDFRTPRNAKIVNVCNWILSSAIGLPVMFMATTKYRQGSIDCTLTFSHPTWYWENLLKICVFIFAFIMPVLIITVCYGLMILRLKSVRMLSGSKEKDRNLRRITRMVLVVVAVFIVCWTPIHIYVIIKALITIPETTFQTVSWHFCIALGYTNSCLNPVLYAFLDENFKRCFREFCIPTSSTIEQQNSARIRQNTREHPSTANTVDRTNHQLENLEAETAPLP
Method: The [^35S]GTPγS functional assay was used to determine whether the synthesized compounds are agonists. The agonist's activity of the compounds was measured relative to 3 μM DAMGO at MOR. In this assay, upon receptor activation due to agonist binding, [^35S]GTPγS binds to the Gα subunit. Thus, [^35S]GTPγS replaces endogenous GTP and since the γ-thiophosphate bond is resistant to hydrolysis by GTPase, [^35S]GTPγS labelled Gα subunits accumulate and can be quantified by measuring the amount of incorporated [^35S].
The Bradford assay was then conducted to determine the concentration of the membrane protein using BSA as the standard. Suitable dilutions of membrane protein, [^35S]GTPγS), cold GTPγS, DAMGO and GDP were made in TME. The desired amount of the protein per tube was 10 μg. All the test-tubes were vortexed and incubated in the shaking water bath at 30° C. for 90 minutes, after which bound radioligand was filtered and rinsed three times with cold Tris buffer. The filtered bound radioligand was then transferred into scintillation tubes with 4 mL of scintillation fluid and radioligand was quantified. However, counting was delayed for 9 hrs to allow the radioactivity to enter the solution. Percent DAMGO stimulation was defined as (net stimulated binding of test compound/net stimulated binding of DAMGO)×100%. The normalized data were subjected to nonlinear regression analysis to determine EC50 and Emax values using Prism 6.0 software (GraphPad Software, San Diego, Calif.). The assay was performed in triplicate and repeated at least three times.

Swiss Webster mice = experiment: Warm-water tail immersion assay, blockage of the antinociceptive effect of morphine; conditions: for Blockage of morphine-mediated antinociception: 10 mg/kg s.c. 5 min before morphine 10 mg/kg, tested 20 min after morphine; for AD50 (95% CL), opioid antagonist effect: dose-dependent study against morphine, s.c.
Method: FIG. 1A-D. Warm-water tail immersion assay in mice (n=5) at 56±0.1° C. All tested compounds were administered subcutaneously (s.c.). […] Compounds (10 mg/kg) were injected at Time 0. Twenty minutes after injection, tail flick was assessed with hot water. […] Tested compounds (10 mg/kg) were injected at Time 0. Five minutes later, morphine (10 mg/kg) was administered. Twenty minutes after morphine injection, tail flick was tested using hot water.
(§4) For the in vivo studies, male Swiss Webster mice were used for both the warm-water immersion and opioid withdrawal assays. The mice weighed 23-35 g and were housed five to a cage in animal care quarters maintained at 22° C. on a 12 hour light-dark cycle with food and water available ad libitum. The mice were transferred to the test room and the tests were then conducted 18 hours later. Protocols and procedures were approved by the Institutional Animal Care and Use Committee at Virginia Commonwealth University Medical Center and complied with the recommendations of the International Association for the Study of Pain.
Each indole analogue of naltrexamine was tested for its ability to produce antinociception and/or to antagonize the antinociceptive effects of morphine in mice using the warm-water tail immersion assay described by Coderre and Rollman. The a water bath temperature was maintained at 56±0.1° C. The baseline latency (control) was determined before injecting the compounds into the mice. […] To test for agonism, the tail immersion was conducted 20 min (time that morphine effect starts to peak) after injecting the indole analogues of 6α/β-naltrexamine. To prevent tissue damage, a 10 s maximum cut off time was imposed. Antinociceptive response was calculated as the percentage maximum possible effect (% MPE), where % MPE=[(test−control)/(10−control)]×100. In the antagonism study, the 6α/β-naltrexamine derivatives were given 5 min before morphine. The tail immersion test was conducted 20 min after giving morphine. % MPE was calculated for each mouse using at least five mice per drug. AD50 values were calculated using the least-squares linear regression analysis followed by calculation of 95% confidence interval by Bliss method. A higher % MPE indicates a stronger antinociception effect by the ligand.

morphine-pelleted mice = experiment: Opioid withdrawal assay in chronic morphine-exposed (pelleted) mice
Method: as §4
A 75 mg morphine pellet was implanted in to the base of the neck of the mice and the mice were then given time to recover in their home cages before the test was conducted. The mice were then allowed for 30 min habituation to an open-topped, square, clear Plexiglas observation chamber (26×26×26 cm^3) with lines partitioning the bottom into quadrants before they were given antagonist. All drugs and test compounds were administered subcutaneously (s.c.). […] Withdrawal commenced within 3 min after antagonist administration. Escape jumps, paw tremors and wet dog shakes were quantified by counting their occurrences over 20 min for each mouse using five mice per drug. The data is given as the mean±SEM. One-way ANOVA followed by the post hoc Dunnett test were performed to assess significance using the Prism 6.0 software.

[1] = [3H]DPN, KOR CHO membranes, read-out: Ki (nM) ± SEM κ
[2] = [3H]DPN, DOR CHO membranes, read-out: Ki (nM) ± SEM δ
[3] = 1 mg/kg s.c., morphine-pelleted mice, counted over 20 min, mean±SEM

Compound	Ki (KOR; [1]) [nM]	Ki (DOR; [2]) [nM]	Emax(% DAMGO) ± SEM (MOR) [% DAMGO]	further results
Cl.O=C(N[C@H]1CC[C@@]2(O)[C@H]3Cc4ccc(O)c5c4[C@@]2(CCN3CC2CC2)[C@H]1O5)c1cc2ccccc2[nH]1 [Compound 1, 17-Cyclopropylmethyl-3,14β-dihydroxy-4,5α-epoxy-6α-(indole-2-carboxamido)morphinan]	0.926 ± 0.125	14.2 ± 2.78	52.0 ± 13.5	–
Cl.O=C(N[C@H]1CC[C@@]2(O)[C@H]3Cc4ccc(O)c5c4[C@@]2(CCN3CC2CC2)[C@H]1O5)c1c[nH]c2ccccc12 [Compound 2, 17-Cyclopropylmethyl-3,14β-dihydroxy-4,5α-epoxy-6α-(indole-3-carboxamido)morphinan]	0.984 ± 0.125	10.5 ± 2.89	35.4 ± 4.8	–
Cl.O=C(N[C@H]1CC[C@@]2(O)[C@H]3Cc4ccc(O)c5c4[C@@]2(CCN3CC2CC2)[C@H]1O5)c1cccc2[nH]ccc12 [Compound 3, 17-Cyclopropylmethyl-3,14β-dihydroxy-4,5α-epoxy-6α-(indole-4-carboxamido)morphinan]	1.49 ± 0.349	9.26 ± 2.83	28.9 ± 1	–
Cl.O=C(N[C@H]1CC[C@@]2(O)[C@H]3Cc4ccc(O)c5c4[C@@]2(CCN3CC2CC2)[C@H]1O5)c1ccc2[nH]ccc2c1 [Compound 4, 17-Cyclopropylmethyl-3,14β-dihydroxy-4,5α-epoxy-6α-(indole-5-carboxamido)morphinan]	3.45 ± 0.994	26.7 ± 7.72	32.2 ± 1.3	–
Cl.O=C(N[C@H]1CC[C@@]2(O)[C@H]3Cc4ccc(O)c5c4[C@@]2(CCN3CC2CC2)[C@H]1O5)c1ccc2cc[nH]c2c1 [Compound 5, 17-Cyclopropylmethyl-3,14β-dihydroxy-4,5α-epoxy-6α-(indole-6-carboxamido)morphinan]	1.63 ± 0.277	12.8 ± 3.36	27.0 ± 0.31	–
Cl.O=C(Cc1c[nH]c2ccccc12)N[C@H]1CC[C@@]2(O)[C@H]3Cc4ccc(O)c5c4[C@@]2(CCN3CC2CC2)[C@H]1O5 [Compound 7, 17-Cyclopropylmethyl-3,14β-dihydroxy-4,5α-epoxy-6α-[2-(indol-3-yl)acetamido)morphinan]	3.13 ± 0.449	9.17 ± 2.67	33.88 ± 1.43	–
Cl.O=C(CCc1c[nH]c2ccccc12)N[C@H]1CC[C@@]2(O)[C@H]3Cc4ccc(O)c5c4[C@@]2(CCN3CC2CC2)[C@H]1O5 [Compound 8, 17-Cyclopropylmethyl-3,14β-dihydroxy-4,5α-epoxy-6α-[3-(indol-3-yl)propanamido)morphinan]	1.36 ± 0.178	31.2 ± 8.12	41.10 ± 6.54	–
Cl.O=C(CCCc1c[nH]c2ccccc12)N[C@H]1CC[C@@]2(O)[C@H]3Cc4ccc(O)c5c4[C@@]2(CCN3CC2CC2)[C@H]1O5 [Compound 9, 17-Cyclopropylmethyl-3,14β-dihydroxy-4,5α-epoxy-6α-[4-(indol-3-yl)butanamido)morphinan]	0.149 ± 0.033	6.73 ± 0.396	48.36 ± 5.17	–
O=C(N[C@@H]1CC[C@@]2(O)[C@H]3Cc4ccc(O)c5c4[C@@]2(CCN3CC2CC2)[C@H]1O5)c1c[nH]c2ccccc12 [Compound 11, 17-Cyclopropylmethyl-3,14β-dihydroxy-4,5α-epoxy-6β-(indole-3-carboxamido)morphinan]	–	–	–	Ki (KOR): 0.16 ± 0.005 nM; Ki (DOR): 7.17 ± 1.23 nM
Cl.O=C(N[C@@H]1CC[C@@]2(O)[C@H]3Cc4ccc(O)c5c4[C@@]2(CCN3CC2CC2)[C@H]1O5)c1cccc2[nH]ccc12 [Compound 12, 17-Cyclopropylmethyl-3,14β-dihydroxy-4,5α-epoxy-6β-(indole-4-carboxamido)morphinan]	–	–	15.21 ± 3.13	Ki (KOR): 1.94 ± 0.299 nM; Ki (DOR): 45.9 ± 16.3 nM
Cl.O=C(N[C@@H]1CC[C@@]2(O)[C@H]3Cc4ccc(O)c5c4[C@@]2(CCN3CC2CC2)[C@H]1O5)c1ccc2[nH]ccc2c1 [Compound 13, 17-Cyclopropylmethyl-3,14β-dihydroxy-4,5α-epoxy-6β-(indole-5-carboxamido)morphinan]	–	–	20.15 ± 4.37	Ki (KOR): 0.512 ± 0.038 nM; Ki (DOR): 17.7 ± 4.78 nM
O=C(N[C@@H]1CC[C@@]2(O)[C@H]3Cc4ccc(O)c5c4[C@@]2(CCN3CC2CC2)[C@H]1O5)c1ccc2cc[nH]c2c1 [Compound 14, 17-Cyclopropylmethyl-3,14β-dihydroxy-4,5α-epoxy-6β-(indole-6-carboxamido)morphinan]	–	–	–	Ki (KOR): 0.166 ± 0.012 nM; Ki (DOR): 6.23 ± 0.825 nM
Cl.O=C(CCc1c[nH]c2ccccc12)N[C@@H]1CC[C@@]2(O)[C@H]3Cc4ccc(O)c5c4[C@@]2(CCN3CC2CC2)[C@H]1O5 [Compound 17, 17-Cyclopropylmethyl-3,14β-dihydroxy-4,5α-epoxy-60-[3-(indol-3-yl)propanamido)morphinan]	0.387 ± 0.045	49 ± 4.72	40.43 ± 5.28	Blockage of morphine-mediated antinociception (Swiss Webster mice): effectively blocked morphine-mediated antinociception; AD50 (95% CL), opioid antagonist effect (Swiss Webster mice): 7.30 (3.38-15.74) mg/kg
Cl.O=C(CCCc1c[nH]c2ccccc12)N[C@@H]1CC[C@@]2(O)[C@H]3Cc4ccc(O)c5c4[C@@]2(CCN3CC2CC2)[C@H]1O5 [Compound 18, 17-Cyclopropylmethyl-3,14β-dihydroxy-4,5α-epoxy-6β-[4-(indol-3-yl)butanamido)morphinan]	0.175 ± 0.037	25.3 ± 4.34	36.29 ± 4.11	Blockage of morphine-mediated antinociception (Swiss Webster mice): effectively blocked morphine-mediated antinociception; AD50 (95% CL), opioid antagonist effect (Swiss Webster mice): 9.64 (3.17-29.29) mg/kg
O=C1CC[C@@]2(O)[C@H]3Cc4ccc(O)c5c4[C@@]2(CCN3CC2CC2)[C@H]1O5 [NTX, naltrexone, reference compound]	–	–	–	Escape jumps (morphine-pelleted mice; [3]): 39.0±14.2 times; Paw tremors (morphine-pelleted mice; [3]): 43.4±15.7; Wet-dog shakes (morphine-pelleted mice; [3]): 18.6±1.2 times; Diarrhea (morphine-pelleted mice; 1 mg/kg, morphine pelleted mice (not in placebo pelleted mice)): produced diarrhea
